Assay results taken from US10604739B2, “Cardiomyocyte production” (Cellular Dynamics International, Inc., priority 2009, dated 2020).
Values joined by “and” are separate entries in the source; they are usually repeats but may differ in a detail not shown here. Equal values may be shown once.

Legend:
[1] = tested on: iPS 6.1 and iPS 6.1 MRB; experiment: iPS cell passaging with NaCitrate in Double Stacks; type: cell-based, human
Protocol: Dissociated iPS cells were rinsed with D-PBS (Dulbecco's Phosphate Buffered Saline) free of Ca^2+ and Mg^2+ and the media were aspirated. The cells were then incubated with appropriate amount (i.e., 1 mL for one well of 6-well plate, 15 mL for T-150 flask, etc) of 15 mM NaCitrate, 165 mM KCl, pH 7.3, OSM 340, at room temperature for 6-15 minutes. After incubation, the NaCitrate solution were aspirated with the cells still loosely attached. The cells were resuspended in appropriate amount of TeSR with 1 μM H1152 and distributed to Matrigel™ surfaced vessel.
For scale up production of the starting material from T150 flasks to Corning Double Stacks, and for assessment of the ability of iPS cells to be passaged as single cells/small clumps with NaCitrate, iPS 6.1 and iPS 6.1 MRB were passaged with 15 mM NaCitrate as single cells or small cell clumps into double stacks while maintaining T150 control flasks split with dispase (see FIG. 1 for experimental design). […] Cells were assessed at passage 4 and passage 7 with cardiogenesis, pluripotency panel, and karyotype. […] Aggregate images and cTnT staining for cardiomyocytes were analyzed on day 14 after splitting (FIGS. 4A-D, FIGS. 5A-C, FIGS. 6A-B, FIGS. 7A-C). Pluripotency profiles of iPS cells after passaging with NaCitrate and dispase was compared by flow cytometry using five pluripotency markers (FIGS. 8A-C). It appears safe to passage iPS cells at least four times with the NaCitrate method.
Cardiogenesis was also analyzed for those iPS cells after passaging with NaCitrate and data were compiled in FIG. 9. […] The last three “spinner” samples come from Double Stack iPS 6.1 MRB cells that were left over from various Double stack harvests. An average yield of 110e6 cells/L was obtained in 1 L spinner with cells passaged in double stacks with NaCitrate.

[2] = tested on: ROCK2; conditions: ROCK1/ROCK2; cited from earlier work
[3] = tested on: pluripotent stem cell-derived cardiomyocytes; conditions: cited from earlier work
[4] = tested on: iPS6.1 cells; experiment: iPS6.1 Four Corners experiment, FGF x HGF cardiac induction; type: cell-based, human; conditions: iPS6.1 cells, 25 ng/mL FGF and/or 50 ng/mL HGF, single T25 flask, day 14; listed as FGF only
Protocol: (§1) Aggregate formation and cardiac induction procedures of those iPS cells at different initial densities were performed essentially the same as described in Examples 4 except different concentrations of human HGF (hHGF) and FGF were applied to Aggregate Formation Medium, Aggregate Transition Medium and Cardiac Induction Medium.
Concurrent with the second iPS growth factor titration, a simple experiment (Table 19) was set up with iPS6.1 cells to test the 2×2 matrix of 0 and 25 ng/mL FGF and 0 and 50 ng/mL HGF. The positive concentrations of FGF and HGF were chosen based on the current best practices for iPS6.1 cells at the time and were identical to the conditions used for cardiac induction of H1 cells in both the plated and suspension processes. This experiment confirmed previous work showing the necessity of FGF for the process.

[5] = tested on: iPS6.1 cells; experiment: iPS6.1 Growth Factor Titration #1; type: cell-based, human; conditions: hbFGF 0 or 25 ng/mL, FIGS. 29A-B
Protocol: as §1
Conditions without FGF had virtually no surviving aggregates and no measurable cardiomyocytes (FIGS. 29A-B). On the other hand, all conditions with FGF yielded cardiomyocytes independent of HGF concentration (FIGS. 29A-B).

[6] = tested on: H9-TGZ cells; experiment: H9-TGZ Growth Factor Titration #2; type: cell-based, human; conditions: FIGS. 31A-C
Protocol: as §1
While the iPS6.1 optimization was underway, a separate series of experiments was conducted to optimize the growth factor concentrations for the H9-TGZ cells. […] Therefore, the FGF range tested was higher than that in the recent iPS6.1 experiments. This experiment confirmed that optimum cardiomyocyte production requires 100-150 ng/mL FGF with the H9-TGZ cells (FIGS. 31A-C).

[7] = tested on: iPS6.1 cells; experiment: iPS6.1 Growth Factor Titration #2; type: cell-based, human; conditions: hbFGF 3-100 ng/mL, FIGS. 30A-B
Protocol: as §1
Based on the results of the first experiment (see FIGS. 29A-B), the second iPS6.1 growth factor titration focused on the lower dose range for both FGF and HGF (FIGS. 30A-B). […] However, it is important to note that in no case did the omission of HGF lead to the failure of a condition which was otherwise successful in the presence of HGF.

For O=C([O-])CC(O)(CC(=O)[O-])C(=O)[O-].[Na+].[Na+].[Na+] [NaCitrate], the “Average yield of cardiomyocytes” value ([1]; 1 L spinner, cells passaged in double stacks with NaCitrate) was 110e6 cells/L, the Doubling time ([1]; Double Stack NaCitrate conditions, 15 mM NaCitrate) was ~30 h and the Karyotype ([1]; cells split 4 times with NaCitrate) was “maintained a normal karyotype”.

For COc1ccc([C@@H]2Sc3ccccc3N(CCN(C)C)C(=O)[C@@H]2OC(C)=O)cc1 [diltiazem], the Contractile activity [3] is given as “inhibits contractile activity in a dose-dependent manner”.

In the case of CC(C)NCC(O)c1ccc(O)c(O)c1 (centres unmarked) [isoprenaline], the Chronotropic effect [3] is listed as “positive chronotropic effect”.

For CNC[C@H](O)c1cccc(O)c1 [phenylephrine], the Chronotropic effect [3] is given as “positive chronotropic effect”.

For “FGF: human recombinant basic FGF, R&D systems”, the “% cTNT+” value [4] was 11.2% and 11.9% and 13.1%, the “Requirement for CM differentiation process” value [5] was “required for the CM differentiation process to be successful” and the “FGF concentration required for optimum cardiomyocyte production” value [6] was 100 to 150 ng/mL. The “FGF dose response (aggregate survival, cardiogenesis)” value [7] was “too little FGF led to poor aggregate survival and high doses had survival but lacked cardiogenesis”.
